ChEMBL document CHEMBL1149044, “Anthraquinones and a 10-Hydroxyanthrone from Phialophora alba” (1994)

Tested on: Phellinus tremulae
Assay: Antifungal activity against Phellinus tremulae at 1 mg/mL
Format: functional

Row | Compound | inhibition at 1000 µg/mL [%]
1 | COc1cc(C)cc2c1C(=O)c1c(O)cc(O)c(Cl)c1C2O (configuration not stated) | 50
2 | COc1cc(C)cc2c1C(=O)c1c(O)cc(O)cc1C2=O [1-O-METHYLEMODIN] | 50
